≈ marks a conversion by molar mass, not a printed value.
system: Mannheimia haemolytica MH 6374 (ATCC 33396, reference strain); test: MIC, broth-microdilution (CLSI VET01-A4); format: cell-based; conditions: Mannheimia haemolytica MH 6374; read-out: MIC MH 6374
Protocol: (§1) The Minimum inhibitory concentrations (MIC) of compounds according to the invention for a number of veterinary bacterial pathogens were determined by the broth-microdilution method according to CLSI document VET01-A4.
(§2) Microdilution trays containing a doubling dilution series of the test compound were used for the tests. The MIC results were interpreted according to the CLSI documents VET01-S3. The lowest concentration of compound at which no visible growth (i.e. no turbidity) detected by the unaided eye was recorded as the MIC.
(§3) The Minimum inhibitory concentrations (MIC) of compounds according to the invention were determined by the broth-microdilution method according to CLSI document VET01-A4.
(§4) Microdilution trays containing a doubling dilution series of the test compound were used for the tests.
(§5) The MIC results were interpreted according to the CLSI documents VET01-S3. The lowest concentration of compound at which no visible growth (i.e. no turbidity) detected by the unaided eye was recorded as the MIC.

Structure (SMILES) | MIC
C[C@@H](O)[C@H](NC(=O)c1ccc(C#Cc2ccc(CNCc3ccncc3)s2)cc1)C(=O)NO [Compound 401] | 0.8 µM (≈ 0.372 µg/mL)
C[C@@H](O)[C@H](NC(=O)c1ccc(C#Cc2ccc(CNCc3cccnc3)s2)cc1)C(=O)NO [Compound 407] | 0.4 µM (≈ 0.186 µg/mL)
C[C@@H](O)[C@H](NC(=O)c1ccc(C#Cc2ccc(CNCc3cccs3)nc2)cc1)C(=O)NO [Compound 425] | 0.8 µM (≈ 0.372 µg/mL)
C[C@@H](O)[C@H](NC(=O)c1ccc(C#Cc2ccc(CNCC#N)s2)cc1)C(=O)NO [Compound 406] | 1.6 µM (≈ 0.66 µg/mL)
CC(C)(N)C(NC(=O)c1ccc(C#Cc2ccc(CNCc3ccccn3)s2)cc1)C(=O)NO (stereo not drawn) [Compound 534] | 0.8 µM (≈ 0.382 µg/mL)

system: Pasteurella multocida PM 12080 (IV102277-0093, BRD field isolate); test: MIC, broth-microdilution (CLSI VET01-A4); format: cell-based; conditions: Pasteurella multocida PM 12080
Protocol: as §1, §2, §3, §4, §5

Structure (SMILES) | MIC PM 12080
C[C@@H](O)[C@H](NC(=O)c1ccc(C#Cc2ccc(CNCc3cccnc3)s2)cc1)C(=O)NO [Compound 407] | <=0.1 μM
C[C@@H](O)[C@H](NC(=O)c1ccc(C#Cc2ccc(CNCc3cccs3)nc2)cc1)C(=O)NO [Compound 425] | <=0.1 μM
CC(C)(N)C(NC(=O)c1ccc(C#Cc2ccc(CNCc3ccccn3)s2)cc1)C(=O)NO (stereo not drawn) [Compound 534] | <=0.1 μM

same assay, conditions: Pasteurella multocida PM 12080; read-out: MIC PM 12080

Structure (SMILES) | MIC
C[C@@H](O)[C@H](NC(=O)c1ccc(C#Cc2ccc(CNCc3ccncc3)s2)cc1)C(=O)NO [Compound 401] | 0.2 µM (≈ 0.0929 µg/mL)
C[C@@H](O)[C@H](NC(=O)c1ccc(C#Cc2ccc(CNCC#N)s2)cc1)C(=O)NO [Compound 406] | 0.4 µM (≈ 0.165 µg/mL)

system: Pasteurella multocida PM 6391 (ATCC 43137, reference strain); test: MIC, broth-microdilution (CLSI VET01-A4); format: cell-based; conditions: Pasteurella multocida PM 6391
Protocol: as §1, §2, §3, §4, §5

Structure (SMILES) | MIC PM 6391
C[C@@H](O)[C@H](NC(=O)c1ccc(C#Cc2ccc(CNCc3cccnc3)s2)cc1)C(=O)NO [Compound 407] | <=0.1 μM
C[C@@H](O)[C@H](NC(=O)c1ccc(C#Cc2ccc(CNCc3cccs3)nc2)cc1)C(=O)NO [Compound 425] | <=0.1 μM
CC(C)(N)C(NC(=O)c1ccc(C#Cc2ccc(CNCc3ccccn3)s2)cc1)C(=O)NO (stereo not drawn) [Compound 534] | <=0.1 μM

same assay, conditions: Pasteurella multocida PM 6391; read-out: MIC PM 6391

Structure (SMILES) | MIC
C[C@@H](O)[C@H](NC(=O)c1ccc(C#Cc2ccc(CNCc3ccncc3)s2)cc1)C(=O)NO [Compound 401] | 0.2 µM (≈ 0.0929 µg/mL)
C[C@@H](O)[C@H](NC(=O)c1ccc(C#Cc2ccc(CNCC#N)s2)cc1)C(=O)NO [Compound 406] | 0.2 µM (≈ 0.0825 µg/mL)

system: Mannheimia haemolytica MH 10720 (154, BRD field isolate); test: MIC, broth-microdilution (CLSI VET01-A4); format: cell-based; conditions: Mannheimia haemolytica MH 10720; read-out: MIC MH 10720
Protocol: as §1, §2, §3, §4, §5

Structure (SMILES) | MIC
CC(C)(N)C(NC(=O)c1ccc(C#Cc2ccc(CNCc3ccccn3)s2)cc1)C(=O)NO (stereo not drawn) [Compound 534] | 0.2 µM (≈ 0.0955 µg/mL)

system: Pasteurella multocida PM 6267 (P 2225 (L386), reference strain, mouse infection strain); test: MIC, broth-microdilution (CLSI VET01-A4); format: cell-based; conditions: Pasteurella multocida PM 6267
Protocol: as §1, §2, §3, §4, §5

Structure (SMILES) | MIC PM 6267
C[C@@H](O)[C@H](NC(=O)c1ccc(C#Cc2ccc(CNCc3ccncc3)s2)cc1)C(=O)NO [Compound 401] | <=0.1 μM
C[C@@H](O)[C@H](NC(=O)c1ccc(C#Cc2ccc(CNCc3cccnc3)s2)cc1)C(=O)NO [Compound 407] | <=0.1 μM
C[C@@H](O)[C@H](NC(=O)c1ccc(C#Cc2ccc(CNCc3cccs3)nc2)cc1)C(=O)NO [Compound 425] | <=0.1 μM
C[C@@H](O)[C@H](NC(=O)c1ccc(C#Cc2ccc(CNCC#N)s2)cc1)C(=O)NO [Compound 406] | <=0.1 μM

same assay, conditions: Pasteurella multocida PM 6267; read-out: MIC PM 6267

Structure (SMILES) | MIC
CC(C)(N)C(NC(=O)c1ccc(C#Cc2ccc(CNCc3ccccn3)s2)cc1)C(=O)NO (stereo not drawn) [Compound 534] | 1.6 µM (≈ 0.764 µg/mL)

system: Mannheimia haemolytica MH 6357 (M7/2, reference strain, cattle infection strain); test: MIC, broth-microdilution (CLSI VET01-A4); format: cell-based; conditions: Mannheimia haemolytica MH 6357; read-out: MIC MH 6357
Protocol: as §1, §2, §3, §4, §5

Structure (SMILES) | MIC
C[C@@H](O)[C@H](NC(=O)c1ccc(C#Cc2ccc(CNCc3ccncc3)s2)cc1)C(=O)NO [Compound 401] | 0.4 µM (≈ 0.186 µg/mL)
C[C@@H](O)[C@H](NC(=O)c1ccc(C#Cc2ccc(CNCc3cccnc3)s2)cc1)C(=O)NO [Compound 407] | 0.4 µM (≈ 0.186 µg/mL)
C[C@@H](O)[C@H](NC(=O)c1ccc(C#Cc2ccc(CNCc3cccs3)nc2)cc1)C(=O)NO [Compound 425] | 0.8 µM (≈ 0.372 µg/mL)
C[C@@H](O)[C@H](NC(=O)c1ccc(C#Cc2ccc(CNCC#N)s2)cc1)C(=O)NO [Compound 406] | 1.6 µM (≈ 0.66 µg/mL)
CC(C)(N)C(NC(=O)c1ccc(C#Cc2ccc(CNCc3ccccn3)s2)cc1)C(=O)NO (stereo not drawn) [Compound 534] | 0.8 µM (≈ 0.382 µg/mL)

system: Mannheimia haemolytica MH 12587 (1071, BRD field isolate, macrolide-resistance: erm+, E+); test: MIC, broth-microdilution (CLSI VET01-A4); format: cell-based; conditions: Mannheimia haemolytica MH 12587, macrolide-resistant
Protocol: as §1, §2, §3, §4, §5

Structure (SMILES) | MIC MH 12587
C[C@@H](O)[C@H](NC(=O)c1ccc(C#Cc2ccc(CNCc3ccncc3)s2)cc1)C(=O)NO [Compound 401] | 0.8 µM (≈ 0.372 µg/mL)
C[C@@H](O)[C@H](NC(=O)c1ccc(C#Cc2ccc(CNCc3cccnc3)s2)cc1)C(=O)NO [Compound 407] | 0.4 µM (≈ 0.186 µg/mL)
C[C@@H](O)[C@H](NC(=O)c1ccc(C#Cc2ccc(CNCc3cccs3)nc2)cc1)C(=O)NO [Compound 425] | 0.8 µM (≈ 0.372 µg/mL)
C[C@@H](O)[C@H](NC(=O)c1ccc(C#Cc2ccc(CNCC#N)s2)cc1)C(=O)NO [Compound 406] | 1.6 µM (≈ 0.66 µg/mL)
CC(C)(N)C(NC(=O)c1ccc(C#Cc2ccc(CNCc3ccccn3)s2)cc1)C(=O)NO (stereo not drawn) [Compound 534] | 1.6 µM (≈ 0.764 µg/mL)

system: Pasteurella multocida PM 10775 (080130003051, BRD field isolate); test: MIC, broth-microdilution (CLSI VET01-A4); format: cell-based; conditions: Pasteurella multocida PM 10775
Protocol: as §1, §2, §3, §4, §5

Structure (SMILES) | MIC PM 10775
C[C@@H](O)[C@H](NC(=O)c1ccc(C#Cc2ccc(CNCc3ccncc3)s2)cc1)C(=O)NO [Compound 401] | <=0.1 μM
C[C@@H](O)[C@H](NC(=O)c1ccc(C#Cc2ccc(CNCc3cccnc3)s2)cc1)C(=O)NO [Compound 407] | <=0.1 μM
C[C@@H](O)[C@H](NC(=O)c1ccc(C#Cc2ccc(CNCc3cccs3)nc2)cc1)C(=O)NO [Compound 425] | <=0.1 μM
C[C@@H](O)[C@H](NC(=O)c1ccc(C#Cc2ccc(CNCC#N)s2)cc1)C(=O)NO [Compound 406] | <=0.1 μM

system: Mannheimia haemolytica MH 13065 (XB0446-6003.9, BRD field isolate); test: MIC, broth-microdilution (CLSI VET01-A4); format: cell-based; conditions: not given
Protocol: as §1, §2

Structure (SMILES) | MIC
C[C@@H](O)[C@H](NC(=O)c1ccc(C#Cc2ccc(CNCc3ccncc3)s2)cc1)C(=O)NO [Compound 401] | 0.4 µM (≈ 0.186 µg/mL)
C[C@@H](O)[C@H](NC(=O)c1ccc(C#Cc2ccc(CNCc3cccnc3)s2)cc1)C(=O)NO [Compound 407] | 0.2 µM (≈ 0.0929 µg/mL)
C[C@@H](O)[C@H](NC(=O)c1ccc(C#Cc2ccc(CNCc3cccs3)nc2)cc1)C(=O)NO [Compound 425] | 0.4 µM (≈ 0.186 µg/mL)
C[C@@H](O)[C@H](NC(=O)c1ccc(C#Cc2ccc(CNCC#N)s2)cc1)C(=O)NO [Compound 406] | 0.8 µM (≈ 0.33 µg/mL)
CC(C)(N)C(NC(=O)c1ccc(C#Cc2ccc(CNCc3ccccn3)s2)cc1)C(=O)NO (stereo not drawn) [Compound 534] | 0.8 µM (≈ 0.382 µg/mL)

system: Mannheimia haemolytica MH 13093 (XB0472-6014.1, BRD field isolate); test: MIC, broth-microdilution (CLSI VET01-A4); format: cell-based; conditions: not given
Protocol: as §1, §2

Structure (SMILES) | MIC
C[C@@H](O)[C@H](NC(=O)c1ccc(C#Cc2ccc(CNCc3ccncc3)s2)cc1)C(=O)NO [Compound 401] | 0.8 µM (≈ 0.372 µg/mL)
C[C@@H](O)[C@H](NC(=O)c1ccc(C#Cc2ccc(CNCc3cccnc3)s2)cc1)C(=O)NO [Compound 407] | 0.4 µM (≈ 0.186 µg/mL)
C[C@@H](O)[C@H](NC(=O)c1ccc(C#Cc2ccc(CNCc3cccs3)nc2)cc1)C(=O)NO [Compound 425] | 0.8 µM (≈ 0.372 µg/mL)
C[C@@H](O)[C@H](NC(=O)c1ccc(C#Cc2ccc(CNCC#N)s2)cc1)C(=O)NO [Compound 406] | 1.6 µM (≈ 0.66 µg/mL)
CC(C)(N)C(NC(=O)c1ccc(C#Cc2ccc(CNCc3ccccn3)s2)cc1)C(=O)NO (stereo not drawn) [Compound 534] | 1.6 µM (≈ 0.764 µg/mL)
